This is an account of results in PubChem BioAssay (NCI).

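1) Cells in 96-well plates. 2) Compound, 48 h, 5 concentrations. 3) Linear interpolation between surrounding doses. 4) Unreached endpoint = highest concentration. Definition used: TGI = concentration required for complete inhibition of growth.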 Bounds are passed on as bounds.

Holding throughout (assay): NCI anticancer screen, dose series, 48 h
Assay [1] concerns A498 renal.
For assay [2], the system named is COLO 205 colon.
Assay [3] concerns HL-60(TB) leukemia.
In assay [4] the test system is HOP-92 NSCLC.
Assay [5] deals with HS 578T breast.
The subject of assay [6] is IGROV1 ovarian.
The subject of assay [7] is KM12 colon.
In assay [8] the test system is M14 melanoma.
Assay [9] deals with NCI-H23 lung.
Assay [10] relates to NCI-H460 lung.
Assay [11] relates to NCI/ADR-RES ovarian.
The subject of assay [12] is RPMI-8226 leukemia.
Assay [13] has as its system SF-295 CNS.
Assay [14] has as its system SF-539 CNS.
For assay [15], the system named is T-47D breast.
Assay [16] concerns U251 CNS.
Assay [17] concerns K-562 leukemia.
Assay [18] deals with MALME-3M melanoma.

For the molecule `c1csc(-c2ccsc2-c2cccs2)c1`, the TGI in assay [1] was more than 100 µM; in [2], more than 100 µM; in assay [3] it was 86.7 µM; in assay [4] it was more than 100 µM; in assay [5], more than 100 µM; in assay [6] it was more than 100 µM. The TGI was more than 100 µM in [7]; more than 100 µM in [8]; 49.7 µM in assay [9]; more than 100 µM in assay [10]; more than 100 µM in assay [11]; 66.8 µM in [12]. The TGI in assay [13], in [14], in assay [15] and in [16] was more than 100 µM in each case.

`CCOC(=O)Nc1ccc2c(c1)c(CCCCCCc1nc3ccccc3c3ccc(NC(=O)OCC)cc13)nc1ccccc12`: the TGI in [1] was 67.3 µM; in assay [2], more than 100 µM; in assay [3] it was more than 100 µM; in assay [4] it was 63 µM; in [5], more than 100 µM; in [6], more than 100 µM. The TGI is more than 100 µM in assay [17]; more than 100 µM in assay [7]; 88.8 µM in assay [8]; more than 100 µM in [9]; more than 100 µM in assay [10]; more than 100 µM in assay [11]. Besides, the TGI in [12] is more than 100 µM; in assay [13], more than 100 µM; in assay [14], 25 µM; in [15], more than 100 µM.

In the case of `COc1ccc2c3c([nH]c2c1)CCN(CCCC(=O)c1ccc(F)cc1)C3`, the TGI was determined as 29.7 µM in [1]; 25.5 µM in [2]; 33.2 µM in assay [3]; 31.7 µM in assay [5]; 32.7 µM in assay [6]; 44.9 µM in assay [17]. In addition, the TGI amounted to 34.4 µM in assay [7]; 28.9 µM in [8]; 27 µM in assay [18]; 34.8 µM in assay [9]; 36.4 µM in [10]; 33.9 µM in [11]. Moreover, the TGI in [12] was 37.3 µM; in [13], 29.4 µM; in assay [14] it was 22.3 µM; in [15], 37 µM; in assay [16], 32 µM.

On to `Cc1csc2c1-n1cccc1C2=O`, for which the TGI in assay [1], in [2], in assay [5], in [6], in assay [17] and in [7] was more than 100 µM in each case. In addition, the TGI in assay [8], in [18], in assay [10], in [11], in [12] and in assay [13] was more than 100 µM in each case. Besides, the TGI in assay [15] and in assay [16] was more than 100 µM throughout.

Regarding `CC1(C)CCC(C)(C)C1C(=O)NC(O)C(=O)O` (stereo not given), the TGI in assay [1], in assay [2], in assay [3], in assay [5], in [6] and in assay [17] was more than 100 µM in each case. Moreover, the TGI in assay [8], in assay [10], in assay [11], in assay [12], in assay [14] and in assay [15] was more than 100 µM each time. This molecule also showed a TGI in [16] of more than 100 µM.

Turning to `O=c1ccn(C2OC(CO)C(O)C2F)c(=O)n1Cc1ccccc1` (stereo not given), the TGI in [2], in assay [3], in assay [5], in assay [6], in assay [17] and in [7] was more than 100 µM each time. Moreover, the TGI in [18], in [9], in [11], in assay [12], in [13] and in assay [14] was more than 100 µM in each case. The TGI in assay [15] and in [16] was more than 100 µM in each case.

For the molecule `OCCN(/N=C\c1ccc2ccccc2c1)C1=NCCN1`, the TGI in [2] is 34.8 µM; in [3], 43.6 µM; in [4], 53.1 µM; in assay [5], more than 100 µM; in assay [6], more than 100 µM; in [17] it was 30.4 µM. The TGI in assay [7] is more than 100 µM; in [8], 35 µM; in [18] it was 29.6 µM; in assay [9] it was more than 100 µM; in assay [10], more than 100 µM; in assay [12], 60.8 µM. Moreover, the TGI is more than 100 µM in assay [13], 43.6 µM in [14], more than 100 µM in assay [15] and 73.8 µM in [16].

For the molecule `Cn1c(CO)ccc1-c1ccc(-c2ccc[se]2)[se]1`, the TGI was 0.187 µM in [1]; more than 84.2 µM in assay [2]; more than 63.2 µM in assay [3]; more than 100 µM in [5]; more than 43.3 µM in assay [17]; more than 100 µM in assay [7]. The TGI in assay [8] is more than 100 µM; in assay [18], more than 100 µM; in assay [9], 50.7 µM; in assay [10], more than 100 µM; in assay [11] it was more than 100 µM; in assay [12] it was more than 71.6 µM. The TGI in [13] was more than 100 µM; in assay [14], 31.7 µM; in assay [15] it was more than 100 µM.

In the case of `Cc1cccc(N2C(=O)C3c4[nH]c5ccccc5c4C4CCC(C(C)(C)C)CC4C3C2=O)c1` (stereo not given), the TGI in assay [1] was 25.8 µM; in assay [2] it was 24.2 µM; in assay [3], more than 100 µM; in assay [5] it was 29.2 µM; in assay [6], 16.4 µM; in assay [17], 17.4 µM. In addition, the TGI in assay [7] was found to be 25.2 µM; in assay [8] it was 28.3 µM; in [18], 28 µM; in assay [9] it was 30.1 µM; in assay [10] it was 19 µM; in assay [11], 32.2 µM. In addition, the TGI in [12] was 25.8 µM; in [13], 21.9 µM; in assay [15], more than 100 µM; in assay [16] it was 47.8 µM.

On to `CC(=O)Nc1ccc2[nH]c(C(=O)N3CC(CCl)c4c3cc([N+](=O)[O-])c3ccccc43)cc2c1` (stereo not given), for which the TGI is 4.06 µM in assay [1]; more than 100 µM in assay [2]; 23 µM in [3]; more than 43.7 µM in assay [4]; more than 95 µM in assay [5]; more than 53 µM in assay [6]. For the same molecule, the TGI in [17] was more than 45.8 µM; in assay [7], more than 71.7 µM; in [8], more than 100 µM; in assay [9], more than 100 µM; in assay [10], more than 100 µM; in [11], more than 100 µM. Moreover, the TGI in assay [12] was more than 27.8 µM; in assay [13] it was more than 100 µM; in [15] it was 9.92 µM; in assay [16] it was more than 100 µM.

Consider `CCOC(=O)C(Cc1ccc(OC(=O)OC(C)(C)C)cc1)NC(=O)OC(C)(C)C` (stereo not given), for which the TGI in [2] was more than 100 µM; in [3], 80.1 µM; in assay [5] it was more than 100 µM; in assay [6], more than 100 µM; in assay [17], more than 100 µM; in assay [7], more than 100 µM. Besides, the TGI in [8] is 79.9 µM; in assay [18], more than 100 µM; in [9], more than 100 µM; in [10] it was more than 100 µM; in assay [11], more than 100 µM; in [13], more than 100 µM. The TGI in assay [14] was more than 100 µM; in assay [15] it was 70.7 µM; in [16], more than 100 µM.

`O=c1oc2ccccc2cc1-c1cn2c(n1)sc1ccccc12`: the TGI in assay [2], in assay [3], in [4], in assay [5], in assay [6] and in assay [17] was more than 100 µM throughout. For the same molecule, the TGI in [7], in assay [8], in [9], in assay [10], in assay [11] and in assay [12] was more than 100 µM in each case. Further, the TGI in [13], in [14], in [15] and in assay [16] was more than 100 µM in each case.

As for `C[C@@H]1C(=O)C[C@H]2C(C)(C)CCC[C@]2(C)[C@@]1(O)CCc1ccoc1`, the TGI in assay [1], in assay [2], in [3], in assay [4], in assay [5] and in assay [6] was more than 100 µM throughout. Also, the TGI in [17], in assay [7], in [8], in assay [18], in [9] and in assay [10] was more than 100 µM throughout. Moreover, the TGI in assay [12], in assay [13], in assay [14], in [15] and in [16] was more than 100 µM each time.

Consider `O=C(NC(=O)c1cc(-c2ccccc2)n[nH]1)c1ccccc1`, for which the TGI in assay [1], in [2], in [4], in assay [5], in assay [6] and in assay [17] was more than 100 µM in each case. Further, the TGI in assay [7], in assay [8], in assay [9], in assay [10], in assay [11] and in [13] was more than 100 µM throughout. Also, the TGI in assay [14], in assay [15] and in assay [16] was more than 100 µM each time.

`O=C(N=c1ccc2nc(=O)[nH]n(O)c-2c1)C(F)(F)F`: the TGI in assay [1], in [2], in assay [3], in assay [5], in assay [6] and in assay [17] was more than 100 µM throughout. Further, the TGI in [7], in assay [8], in [9], in assay [10], in assay [11] and in assay [12] was more than 100 µM each time. In addition, the TGI in assay [13], in assay [14], in assay [15] and in [16] was more than 100 µM in each case.

Consider `CC1CC/C(=C\c2ccc(F)cc2)C(=O)/C1=C/c1ccc(F)cc1` (stereo not given), for which the TGI in [1] is 25.3 µM; in [2], 18.5 µM; in assay [5], 31.4 µM; in assay [6], 11.1 µM; in assay [17], more than 100 µM; in [7] it was 14.5 µM. The TGI stood at 39.4 µM in assay [8]; 32.8 µM in assay [18]; 25.5 µM in assay [9]; 5.75 µM in [11]; 5.52 µM in assay [12]; 7.38 µM in [13]. Besides, the values for the TGI in [14], in assay [15] and in assay [16] were 9.15 µM, 21 µM and 22.7 µM, respectively.

Take `C=C(C)COC1CCCCO1` (stereo not given): the TGI in [1], in assay [2], in assay [3], in [5], in assay [6] and in [17] was more than 100 µM throughout. In addition, the TGI in [7], in [8], in assay [18], in assay [9], in [10] and in [11] was more than 100 µM each time. Also, the TGI in assay [12], in assay [13], in [14], in [15] and in assay [16] was more than 100 µM each time.

Consider `COC(=O)N[C@H](C(=O)O)C(C)O[Si](C)(C)C(C)(C)C` (stereo not given in full), for which the TGI in assay [1], in [2], in [3], in assay [5], in [6] and in [17] was more than 100 µM in each case. Also, the TGI in assay [7], in assay [18], in assay [9], in [10], in assay [11] and in [12] was more than 100 µM in each case. In addition, the TGI in [13], in assay [14], in assay [15] and in [16] was more than 100 µM throughout.
